Results published in ChEMBL document CHEMBL1743201, “Casarett and Doull's Toxicology The Basic Science of Poisons, 7th edition” (2008).

How the values were obtained:
Type in all cases: ADME
[1] = target: T1, Glutathione S-transferase Mu 2 (Homo sapiens, UniProt P28161); assay: Substrates for human cytosolic glutathione transferase GSTM2
T1 sequence (P28161 whole entry): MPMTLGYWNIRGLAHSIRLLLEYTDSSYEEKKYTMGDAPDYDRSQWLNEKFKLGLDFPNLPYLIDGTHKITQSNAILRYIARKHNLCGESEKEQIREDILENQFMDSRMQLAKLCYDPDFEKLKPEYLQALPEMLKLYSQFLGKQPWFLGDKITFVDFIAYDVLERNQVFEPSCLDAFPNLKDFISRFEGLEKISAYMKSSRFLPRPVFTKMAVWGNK

[2] = target: T2, Glutathione S-transferase theta-1 (Homo sapiens, UniProt P30711); assay: Substrates for human cytosolic glutathione transferase GSTT1
T2 sequence (P30711 whole entry): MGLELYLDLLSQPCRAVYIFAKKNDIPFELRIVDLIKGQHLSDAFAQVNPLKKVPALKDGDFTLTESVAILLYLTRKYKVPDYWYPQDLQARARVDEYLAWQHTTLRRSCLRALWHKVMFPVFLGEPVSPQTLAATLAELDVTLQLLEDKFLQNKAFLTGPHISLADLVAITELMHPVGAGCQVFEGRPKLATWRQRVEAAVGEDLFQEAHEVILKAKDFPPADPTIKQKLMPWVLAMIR

Cytochrome P450 2C9 [3] = target: T3, Cytochrome P450 2C9 (Homo sapiens, UniProt P11712); assay: Clinically relevant inhibitors of human liver microsomal P450 enzymes, isoform CYP2C9; settings: microsomes
Cytochrome P450 1A2 = target: T4, Cytochrome P450 1A2 (Homo sapiens, UniProt P05177); assay: Clinically relevant inhibitors of human liver microsomal P450 enzymes, isoform CYP1A2; settings: microsomes
T4 sequence (P05177 whole entry): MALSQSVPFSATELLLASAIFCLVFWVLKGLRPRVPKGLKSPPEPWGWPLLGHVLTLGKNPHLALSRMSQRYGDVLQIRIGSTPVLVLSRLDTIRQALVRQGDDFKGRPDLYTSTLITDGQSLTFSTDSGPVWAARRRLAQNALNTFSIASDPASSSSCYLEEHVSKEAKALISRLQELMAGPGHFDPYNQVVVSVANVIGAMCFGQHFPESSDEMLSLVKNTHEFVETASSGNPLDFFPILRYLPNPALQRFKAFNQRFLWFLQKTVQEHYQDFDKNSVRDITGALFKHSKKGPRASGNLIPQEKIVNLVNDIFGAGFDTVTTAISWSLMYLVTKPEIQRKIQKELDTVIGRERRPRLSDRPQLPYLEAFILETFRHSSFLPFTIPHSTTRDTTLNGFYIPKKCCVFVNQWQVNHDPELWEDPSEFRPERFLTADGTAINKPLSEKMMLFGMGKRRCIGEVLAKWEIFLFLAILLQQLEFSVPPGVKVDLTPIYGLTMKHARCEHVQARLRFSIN

[4] = target: T5, Glutathione S-transferase Mu 1 (Homo sapiens, UniProt P09488); assay: Substrates for human cytosolic glutathione transferase GSTM1
T5 sequence (P09488 whole entry): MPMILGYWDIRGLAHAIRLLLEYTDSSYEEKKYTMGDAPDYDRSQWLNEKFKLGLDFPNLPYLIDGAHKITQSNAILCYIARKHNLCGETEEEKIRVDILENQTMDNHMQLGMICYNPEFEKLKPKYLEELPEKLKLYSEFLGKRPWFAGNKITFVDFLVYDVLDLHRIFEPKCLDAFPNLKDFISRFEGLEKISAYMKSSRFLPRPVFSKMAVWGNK

[5] = target: T6, UDP-glucuronosyltransferase 2B15 (Homo sapiens, UniProt P54855); assay: Substrate of human UDP-glucuronosyltransferase UGT2B15
T6 sequence (P54855 whole entry): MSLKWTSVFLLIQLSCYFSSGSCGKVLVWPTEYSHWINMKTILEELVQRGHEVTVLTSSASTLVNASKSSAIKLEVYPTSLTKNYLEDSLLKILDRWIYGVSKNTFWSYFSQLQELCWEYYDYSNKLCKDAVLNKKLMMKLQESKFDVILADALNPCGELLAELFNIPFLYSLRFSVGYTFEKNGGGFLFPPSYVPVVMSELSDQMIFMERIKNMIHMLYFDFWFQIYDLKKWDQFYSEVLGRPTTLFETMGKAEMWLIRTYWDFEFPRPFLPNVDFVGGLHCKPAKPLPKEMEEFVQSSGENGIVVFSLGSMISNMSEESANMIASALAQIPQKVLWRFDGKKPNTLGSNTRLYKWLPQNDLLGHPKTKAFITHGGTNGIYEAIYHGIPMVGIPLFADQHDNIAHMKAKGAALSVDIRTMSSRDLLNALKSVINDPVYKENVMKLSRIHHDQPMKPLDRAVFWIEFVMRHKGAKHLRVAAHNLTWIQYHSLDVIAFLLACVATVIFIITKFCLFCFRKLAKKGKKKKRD

[6] = target: T7, UDP-glucuronosyltransferase 1A9 (Homo sapiens, UniProt O60656); assay: Substrate of human UDP-glucuronosyltransferase UGT1A9
T7 sequence (O60656 whole entry): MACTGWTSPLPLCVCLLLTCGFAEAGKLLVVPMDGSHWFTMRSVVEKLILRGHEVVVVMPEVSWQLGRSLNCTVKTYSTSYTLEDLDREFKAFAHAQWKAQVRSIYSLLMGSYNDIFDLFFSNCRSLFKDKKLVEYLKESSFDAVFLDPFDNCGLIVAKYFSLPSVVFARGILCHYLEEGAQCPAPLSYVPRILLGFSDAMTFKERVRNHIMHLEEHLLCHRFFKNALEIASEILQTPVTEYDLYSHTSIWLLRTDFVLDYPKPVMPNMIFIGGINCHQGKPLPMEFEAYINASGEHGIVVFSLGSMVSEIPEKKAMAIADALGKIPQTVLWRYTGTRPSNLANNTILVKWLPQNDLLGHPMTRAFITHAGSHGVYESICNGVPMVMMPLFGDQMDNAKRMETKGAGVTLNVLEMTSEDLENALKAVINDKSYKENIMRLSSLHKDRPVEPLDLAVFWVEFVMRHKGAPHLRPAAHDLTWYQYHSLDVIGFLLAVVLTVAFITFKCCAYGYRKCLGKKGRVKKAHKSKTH

[7] = target: T8, UDP-glucuronosyltransferase 1A8 (Homo sapiens, UniProt Q9HAW9); assay: Substrate of human UDP-glucuronosyltransferase UGT1A8
T8 sequence (Q9HAW9 whole entry): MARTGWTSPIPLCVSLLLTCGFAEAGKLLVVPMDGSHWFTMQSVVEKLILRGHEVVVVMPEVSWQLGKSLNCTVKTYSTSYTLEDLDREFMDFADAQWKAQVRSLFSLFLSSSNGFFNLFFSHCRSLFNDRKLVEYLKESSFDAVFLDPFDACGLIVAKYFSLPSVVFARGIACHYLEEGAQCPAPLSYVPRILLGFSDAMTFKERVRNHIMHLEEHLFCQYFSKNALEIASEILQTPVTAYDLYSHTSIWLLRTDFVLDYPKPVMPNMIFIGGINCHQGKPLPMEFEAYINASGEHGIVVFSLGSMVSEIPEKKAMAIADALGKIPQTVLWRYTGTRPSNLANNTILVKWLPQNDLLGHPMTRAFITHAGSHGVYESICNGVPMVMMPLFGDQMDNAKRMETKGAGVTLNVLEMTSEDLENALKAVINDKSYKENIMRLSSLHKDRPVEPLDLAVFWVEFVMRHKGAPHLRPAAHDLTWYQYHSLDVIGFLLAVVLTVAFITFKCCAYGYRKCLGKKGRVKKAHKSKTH

[8] = target: T9, UDP-glucuronosyltransferase 1A6 (Homo sapiens, UniProt P19224); assay: Substrate of human UDP-glucuronosyltransferase UGT1A6
T9 sequence (P19224 whole entry): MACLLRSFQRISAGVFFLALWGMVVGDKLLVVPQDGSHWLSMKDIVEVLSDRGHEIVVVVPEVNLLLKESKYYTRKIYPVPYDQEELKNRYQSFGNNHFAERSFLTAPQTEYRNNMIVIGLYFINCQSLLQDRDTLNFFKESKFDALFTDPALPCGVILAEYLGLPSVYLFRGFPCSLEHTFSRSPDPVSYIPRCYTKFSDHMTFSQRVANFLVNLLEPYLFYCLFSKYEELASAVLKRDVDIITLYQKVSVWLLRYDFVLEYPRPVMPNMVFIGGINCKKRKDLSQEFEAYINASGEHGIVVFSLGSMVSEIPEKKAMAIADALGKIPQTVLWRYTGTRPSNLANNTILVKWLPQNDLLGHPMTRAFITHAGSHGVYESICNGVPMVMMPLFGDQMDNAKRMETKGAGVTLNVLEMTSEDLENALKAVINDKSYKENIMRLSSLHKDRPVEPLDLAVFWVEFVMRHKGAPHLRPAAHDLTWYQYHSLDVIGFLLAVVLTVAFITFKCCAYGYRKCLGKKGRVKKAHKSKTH

[9] = target: T10, UDP-glucuronosyltransferase 2B7 (Homo sapiens, UniProt P16662); assay: Substrate of human UDP-glucuronosyltransferase UGT2B7
T10 sequence (P16662 whole entry): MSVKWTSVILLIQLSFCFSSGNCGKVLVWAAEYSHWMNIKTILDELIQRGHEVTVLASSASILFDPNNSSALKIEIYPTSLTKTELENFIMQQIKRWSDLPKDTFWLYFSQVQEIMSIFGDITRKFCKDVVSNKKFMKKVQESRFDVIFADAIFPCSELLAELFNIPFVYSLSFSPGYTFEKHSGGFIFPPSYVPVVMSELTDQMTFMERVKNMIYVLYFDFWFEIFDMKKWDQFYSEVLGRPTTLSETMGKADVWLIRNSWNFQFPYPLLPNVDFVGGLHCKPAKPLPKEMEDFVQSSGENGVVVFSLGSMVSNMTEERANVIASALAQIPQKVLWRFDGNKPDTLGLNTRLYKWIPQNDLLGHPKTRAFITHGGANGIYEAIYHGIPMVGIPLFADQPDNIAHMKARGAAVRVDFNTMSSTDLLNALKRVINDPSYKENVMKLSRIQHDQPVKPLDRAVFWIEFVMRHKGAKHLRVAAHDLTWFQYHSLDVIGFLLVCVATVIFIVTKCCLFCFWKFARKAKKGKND

Cytochrome P450 2C9 [10] = target: T3, Cytochrome P450 2C9; assay: Clinically relevant substrates of human liver microsomal P450 enzymes, isoform CYP2C9; settings: microsomes
Cytochrome P450 2C19 = Cytochrome P450 2C19 (Homo sapiens, UniProt P33261); assay: Clinically relevant substrates of human liver microsomal P450 enzymes, isoform CYP2C19; settings: microsomes
Cytochrome P450 2D6 = Cytochrome P450 2D6 (Homo sapiens, UniProt P10635); assay: Clinically relevant inhibitors of human liver microsomal P450 enzymes, isoform CYP2D6; settings: microsomes
[11] = target: T11, Glutathione S-transferase A1 (Homo sapiens, UniProt P08263); assay: Substrates for human cytosolic glutathione transferase GSTA1
T11 sequence (P08263 whole entry): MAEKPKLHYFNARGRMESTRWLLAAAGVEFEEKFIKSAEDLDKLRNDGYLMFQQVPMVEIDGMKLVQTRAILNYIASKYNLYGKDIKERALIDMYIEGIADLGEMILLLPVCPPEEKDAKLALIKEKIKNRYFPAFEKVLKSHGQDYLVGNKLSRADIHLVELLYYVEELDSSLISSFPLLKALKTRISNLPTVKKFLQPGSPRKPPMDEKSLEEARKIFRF

[12] = target: Glutathione S-transferase P (Homo sapiens, UniProt P09211); assay: Substrates for human cytosolic glutathione transferase GSTP1
Glutathione S-transferase P, sequence (P09211 whole entry): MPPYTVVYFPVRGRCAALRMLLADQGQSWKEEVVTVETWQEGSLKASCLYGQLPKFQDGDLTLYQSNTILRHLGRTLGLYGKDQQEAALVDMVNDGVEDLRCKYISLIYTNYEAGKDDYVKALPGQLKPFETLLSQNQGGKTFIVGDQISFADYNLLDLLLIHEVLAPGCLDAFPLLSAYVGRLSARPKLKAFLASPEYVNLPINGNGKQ

T3 sequence (P11712 whole entry, canonical isoform): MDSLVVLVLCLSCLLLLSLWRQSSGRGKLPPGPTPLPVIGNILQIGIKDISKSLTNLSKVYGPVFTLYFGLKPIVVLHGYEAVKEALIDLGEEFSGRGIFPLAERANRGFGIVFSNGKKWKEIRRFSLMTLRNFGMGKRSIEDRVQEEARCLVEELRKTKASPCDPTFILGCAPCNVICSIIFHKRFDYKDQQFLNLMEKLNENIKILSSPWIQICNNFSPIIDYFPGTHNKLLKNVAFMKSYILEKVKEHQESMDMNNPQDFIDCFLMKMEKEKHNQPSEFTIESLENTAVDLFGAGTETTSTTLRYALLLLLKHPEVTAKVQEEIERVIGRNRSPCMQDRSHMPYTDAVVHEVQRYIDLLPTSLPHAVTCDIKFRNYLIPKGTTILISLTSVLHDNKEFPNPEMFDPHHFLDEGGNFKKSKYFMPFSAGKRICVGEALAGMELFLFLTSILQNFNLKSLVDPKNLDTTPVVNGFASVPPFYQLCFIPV
Cytochrome P450 2C19, sequence (P33261 whole entry, canonical isoform): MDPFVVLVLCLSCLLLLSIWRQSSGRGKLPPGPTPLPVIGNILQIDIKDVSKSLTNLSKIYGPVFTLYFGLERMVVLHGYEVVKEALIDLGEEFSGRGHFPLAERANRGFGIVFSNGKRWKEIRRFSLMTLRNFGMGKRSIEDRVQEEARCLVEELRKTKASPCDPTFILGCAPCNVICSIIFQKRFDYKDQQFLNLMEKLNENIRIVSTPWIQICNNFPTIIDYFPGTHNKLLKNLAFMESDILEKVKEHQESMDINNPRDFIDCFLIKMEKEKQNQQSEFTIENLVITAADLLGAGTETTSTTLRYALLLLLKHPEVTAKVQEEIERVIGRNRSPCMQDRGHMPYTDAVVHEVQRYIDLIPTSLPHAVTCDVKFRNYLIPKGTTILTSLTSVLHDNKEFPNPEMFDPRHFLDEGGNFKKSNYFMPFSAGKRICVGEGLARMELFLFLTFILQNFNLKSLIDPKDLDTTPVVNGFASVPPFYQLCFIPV
Cytochrome P450 2D6, sequence (P10635 whole entry, canonical isoform): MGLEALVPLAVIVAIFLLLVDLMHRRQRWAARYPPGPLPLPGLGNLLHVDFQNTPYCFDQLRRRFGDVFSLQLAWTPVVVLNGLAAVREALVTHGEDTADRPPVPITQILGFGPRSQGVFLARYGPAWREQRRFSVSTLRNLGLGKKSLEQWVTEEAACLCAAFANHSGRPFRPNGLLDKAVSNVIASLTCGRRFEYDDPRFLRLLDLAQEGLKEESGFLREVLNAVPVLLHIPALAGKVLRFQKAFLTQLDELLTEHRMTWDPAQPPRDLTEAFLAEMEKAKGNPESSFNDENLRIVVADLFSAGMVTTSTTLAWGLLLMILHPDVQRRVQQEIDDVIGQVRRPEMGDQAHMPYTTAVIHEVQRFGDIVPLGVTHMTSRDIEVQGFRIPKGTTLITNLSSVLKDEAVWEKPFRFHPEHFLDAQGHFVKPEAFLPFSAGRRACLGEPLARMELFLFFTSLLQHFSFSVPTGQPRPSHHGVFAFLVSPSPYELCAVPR

O=[N+]([O-])c1ccc(Cl)c(Cl)c1
Activity [1]: Substrate

NC(CC1=CC(=O)C(=O)C=C1)C(=O)O (centres undefined)
Activity [1]: Substrate

O=C1C=C2CCNC2=CC1=O [AMINOCHROME]
Activity [1]: Substrate

ClCCl [METHYLENE CHLORIDE]
Activity [2]: Substrate

COCCCC/C(=N\OCCN)c1ccc(C(F)(F)F)cc1 [FLUVOXAMINE]
Activity (Cytochrome P450 2C9 [3]): Inhibitor
Activity (Cytochrome P450 1A2): Inhibitor

c1ccc([C@H]2O[C@@H]2c2ccccc2)cc1 (relative stereo)
Activity [4]: Substrate

CC(c1cc2ccccc2s1)N(O)C(N)=O (centres undefined) [ZILEUTON]
Activity (Cytochrome P450 1A2): Inhibitor

CCN(CC)C(=O)/C(C#N)=C/c1cc(O)c(O)c([N+](=O)[O-])c1 [ENTACAPONE]
Activity [5]: Substrate
Activity [6]: Substrate
Activity [7]: Substrate

O=C(O)Cc1ccccc1Nc1c(Cl)cccc1Cl [DICLOFENAC]
Activity [5]: Substrate
Activity [6]: Substrate
Activity [8]: Substrate
Activity [9]: Substrate
Activity (Cytochrome P450 2C9 [10]): Substrate

CNCCC(Oc1ccc(C(F)(F)F)cc1)c1ccccc1 (centres undefined) [FLUOXETINE]
Activity (Cytochrome P450 2C19): Substrate
Activity (Cytochrome P450 2C9 [3]): Inhibitor
Activity (Cytochrome P450 2C9 [10]): Substrate

CN[C@H]1CC[C@@H](c2ccc(Cl)c(Cl)c2)c2ccccc21 [SERTRALINE]
Activity (Cytochrome P450 2D6): Inhibitor

CC(C(=O)O)c1ccc(-c2ccccc2)c(F)c1 (centres undefined) [FLURBIPROFEN]
Activity (Cytochrome P450 2C9 [10]): Substrate

OC1c2c(ccc3cc4c(ccc5ccccc54)cc23)C2OC2C1O (centres undefined) [DIBENZ[A,H]ANTHRACENE DIOL EPOXIDE]
Activity [11]: Substrate
Activity [4]: Substrate

C=CC1CO1 (centres undefined) [BUTADIENE EPOXIDE]
Activity [2]: Substrate

O=[N+]([O-])c1ccc(OCC2CO2)cc1 (centres undefined)
Activity [2]: Substrate

Cc1cccc(C)c1OCC(C)N (centres undefined) [MEXILETINE]
Activity (Cytochrome P450 1A2): Inhibitor

c1ccc(C2CO2)cc1 (centres undefined)
Activity [4]: Substrate

Cc1ccc(C(=O)c2cc(O)c(O)c([N+](=O)[O-])c2)cc1 [TOLCAPONE]
Activity [5]: Substrate

OC1c2cc3ccc4cccc5ccc(c2C2OC2C1O)c3c45 (centres undefined) [BENZO[A]PYRENE DIOL EPOXIDE]
Activity [11]: Substrate
Activity [4]: Substrate
Activity [12]: Substrate

CCC(=C(c1ccc(O)cc1)c1ccc(OCCN(C)C)cc1)c1ccccc1
Activity [5]: Substrate

COc1ccnc(C[S+]([O-])c2nc3ccc(OC(F)F)cc3[nH]2)c1OC (centres undefined) [PANTOPRAZOLE]
Activity (Cytochrome P450 2C19): Substrate

CC(=O)C[C@@H](c1ccccc1)c1c(O)c2ccccc2oc1=O
Activity (Cytochrome P450 2C9 [10]): Substrate

C1CO1 [OXIRANE]
Activity [2]: Substrate

O=C(NCCN1CCOCC1)c1ccc(Cl)cc1 [MOCLOBEMIDE]
Activity (Cytochrome P450 2C19): Substrate

OC1c2ccc3c(ccc4ccccc43)c2C2OC2C1O (centres undefined)
Activity [4]: Substrate
Activity [12]: Substrate

CCn1cc(C(=O)O)c(=O)c2cc(F)c(N3CCNCC3)cc21 [NORFLOXACIN]
Activity (Cytochrome P450 1A2): Inhibitor
